Assay results from patent US9714941B2, “Bio-sensing nanodevice” (Massachusetts Institute of Technology, priority 2007, dated 2017).

Assays:
[1] = target: T1, hOR17-4 (Homo sapiens, UniProt P34982); conditions: cited from earlier work
T1 sequence (P34982 1-312): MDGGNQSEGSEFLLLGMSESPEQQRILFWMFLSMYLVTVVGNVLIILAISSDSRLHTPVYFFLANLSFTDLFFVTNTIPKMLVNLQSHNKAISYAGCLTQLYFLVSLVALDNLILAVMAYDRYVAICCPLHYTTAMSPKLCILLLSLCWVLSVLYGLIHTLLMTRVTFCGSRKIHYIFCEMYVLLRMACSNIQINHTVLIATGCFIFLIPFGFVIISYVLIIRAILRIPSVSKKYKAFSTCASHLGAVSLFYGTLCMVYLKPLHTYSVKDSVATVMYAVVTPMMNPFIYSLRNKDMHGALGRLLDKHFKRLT

[2] = target: T1, hOR17-4; experiment: Surface plasmon resonance (Biacore A100) odorant binding assay; design: made in house; host or cells: cell-free expression, wheat germ extract (Roche RTS); uncleaned lysate supernatant captured on the chip; conditions: SPR
Description: All odorant binding experiments were performed on a Biacore™ A100 (GE Healthcare, Uppsala, Sweden) at 25° C. A Biacore™ A100 was used in the present studies since it has a parallel flow configuration thus allowing assay development e.g. solubilization conditions to be tested and optimized in parallel in a multiplexed format. The sensor chip CM4, amine coupling kit, HBS (10 mM Hepes, 0.15 M NaCl, pH 7.4) and PBS were from (GE Healthcare, Uppsala, Sweden).
The anti Rho-tag antibody 1D4 at 40 μg/ml in 10 mM sodium acetate pH 5.5 was immobilized onto a series S sensor chip using standard amine-coupling chemistry in HBS running buffer at 10 μl/min (33). The amount of coupled 1D4 was about 5500 RU. Control surfaces were prepared similarly without protein derivatization and utilized as a reference surfaces for compound binding experiments.
Cell-free lysate containing the expressed olfactory receptor was centrifuged for […] at 14000×g at 4° C., to remove larger particles. The supernatant, containing about 0.6 mg/ml olfactory receptor, was immediately captured on the surface plasmon resonance (SPR) chip using PBS, 0.1% CHAPS, 0.02% CHS, 0.1% DDM and 1% (v/v) ethanol as running buffer at 10 μl/min.
Fresh odorant lilial solutions were made as follows. […]

[3] = Odorant solubility in SPR running buffer, inferred from the binding response; type: physicochemical
Description: Fresh odorant lilial solutions were made as follows. Pure odorant was diluted in ethanol to 0.5 M. This solution was diluted 67 times in PBS, 0.1% CHAPS, 0.02% CHS, 0.1% DDM to obtain a 7.5 mM odorant solution in running buffer with 1% (v/v) ethanol. Further dilutions were made in running buffer containing 1% (v/v) ethanol to obtain a concentration series of 5 μM, 10 μM, 20 μM and 40 μM of odorant lilial.
For the actual binding measurements, the odorant concentration series were injected from low to high concentration over control and derivatized surfaces for 30 seconds with a flow rate of 60 μl/min. Zero concentration blank buffer cycles were included as negative control samples. Solvent correction procedures were included to compensate for any DMSO related bulk refractive index variations and performed as described previously^(34). Non-specific binding effects to sensor surface CM4 were absent for all analyses reported.

CC(C=O)Cc1ccc(C(C)(C)C)cc1 (stereo not drawn) [lilial]
agonist activity at hOR17-4 ([1]; in vivo studies): known agonist | affinity constant reported in vivo ([1]; in vivo): micromolar range | dose response binding (RU) ([2]; lilial 5-40 μM, 25° C., receptor from cell-free production captured via 1D4 antibody): binding response increases by increasing odorant concentration | binding constant (approximately estimated) ([2]; exact value could not be determined because of low solubility): within micromolar range | solubility at high concentrations ([3]; SPR running buffer): very low | concentration above which the response does not reach equilibrium (odorant starts to fall out of solution) ([3]; running buffer PBS, 0.1% CHAPS, 0.02% CHS, 0.1% DDM, 1% (v/v) ethanol): above 10 μM
